Measured values reported in publication PMC4667271, “Discovery of a Novel Inhibitor of the Protein Tyrosine Phosphatase Shp2” (Scientific Reports, 2015).

Columns and labels:
[1] = biological target: T1, Shp2 PTP domain (Homo sapiens, UniProt Q06124); assay: in vitro PTP assay (pNPP), Shp2 PTP domain; assay type: biochemical
T1 sequence (Q06124 247-517 limits assumed): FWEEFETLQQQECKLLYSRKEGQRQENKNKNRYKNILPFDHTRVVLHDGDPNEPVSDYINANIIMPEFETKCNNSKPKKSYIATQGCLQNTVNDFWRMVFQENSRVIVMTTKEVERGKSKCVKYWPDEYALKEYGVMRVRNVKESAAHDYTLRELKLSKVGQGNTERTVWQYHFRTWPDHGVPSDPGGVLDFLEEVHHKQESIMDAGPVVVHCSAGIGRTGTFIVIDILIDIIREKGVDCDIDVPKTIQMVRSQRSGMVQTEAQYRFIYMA
Method: (§1) Plasmids for expression of His-tag fusion proteins of human PTP were constructed in PET-28a by PCR subcloning techniques. The constructions contain only the PTP domain except Full-length Shp2. Full-length Shp2 containing Tyr279-to-Ala mutant was generated by PCR-based mutagenesis. All constructs were verified by DNA sequencing. PTP-His fusion proteins were expressed in Escherichia coli BL21 and lysed in the buffer (50 mM NaH2PO4, 300 mM NaCl, 250 mM imidazole, 1 mM dithiothreitol plus 5% glycerol), purified with Ni-NTA Magnetic Agarose Beads (Qiagen). The His-tag recombinant purification protocol was carried out according to the purification under native conditions of the QIAexpress System.
(§2) The assay was set in wells of 96-well plate with a final volume of 100 μl of reaction mixture containing 10 mM of NaAc-HAc, 1 mM of ethylene diamine tetraacetic acid, 1 mM of DL-dithiothreitol and 2% of dimethyl sulfoxide, pH 5.5. Activity of the enzyme was assayed by incubating recombinant PTP protein or mutant PTP with various concentrations of Fumos in the mixture at 37 °C for 30 min. Absorbance at 405 nm was detected immediately after addition of varied concentrations of substrate, p-nitrophenyl phosphate (pNPP) to each corresponding well.

[2] = test system: PMA-induced ERK1/2 phosphorylation; assay: PMA-induced ERK1/2 activation, Western blot; conditions: pretreated 24 h, 100 nM PMA 5 min; even at highest concentration tested
Method: Cells were pretreated with increasing concentrations of Fumos for 24 h, and then stimulated with 100 nM PMA for 5 min. DMSO treatment as control. ERK1/2 activation was analyzed by Western-Blot with antibodies to phosphorylated ERK1/2 (pERK) or ERK1/2. GAPDH is used as a loading control for Western Blot. The control treatment is not induced by PMA.
Cells were seeded in a culture bottle at 37 °C, under 5% CO2 and 95% air. […] Then cells were collected and dissolved in the lysis buffer (50 mM Hepes-NaOH, 100 mM NaCl, 0.5%NP-40, 2.5 mM EDTA, 10% glycerol, 1 mM DTT, 1 mM PMSF, 0.7 μl/ml pepstatin, 0.5 μg/ml leupetin, 2 μg/ml aprotinin). Cell lysates were centrifuged at 4 °C with the speed of 10,000 g for 15 min. After centrifugation, the supernatant was collected. 30 μg proteins were loaded on SDS-PAGE. After electrophoresis, proteins were transferred onto PVDF meber, and immunobloted with specific antibodies, and visualized using ECL reagent. Each membrane was stripped and reprobed with anti-GAPDH antibody to ensure equal protein loading. The bands were densitometrically scanned and analyzed using a BIO-RAD Gel Analysis System.

[3] = test system: Src and Paxillin phosphorylation in MDA-MB-231 cells; assay: Src, PLCγ1 and Paxillin phosphorylation, Western blot, MDA-MB-231; assay type: cell-based, human; conditions: 10-40 μM 24 h, EGF
Excerpt: Figure 6 Fumos affects the phosphorylation of Src and Paxillin. […] DMSO treatment as control. Western blotting analysis for the expression of p-Src(Tyr416) p-Src (Tyr530), Src, p-PLCγ1, PLCγ1, p-Paxillin(Tyr118), p-Paxillin (Tyr31) and Paxillin. (b,c) Densitometric analysis of pSrc530/Src in the Western blots of Hela and MDA-MB-231, respectively. Bars represent mean ± S.E.M. values from three experiments, **p = 0.006 < 0.01/F = 8 vs EGF, one-way ANOVA followed by Tukey’s test.
(§3) After centrifugation, the supernatant was collected.

[4] = test system: HeLa cells; assay: Transwell invasion assay, HeLa; assay type: cell-based, human; conditions: 4 and 14 μM, 24 h, EGF in lower chamber
Method: (§4) The invasion assay was performed in Transwell chambers according to Corning methods. Briefly, the upper chamber of a Transwell insert ([…] pore size) was coated with 40 μl 1:6 mixture of Matrigel (BD Biosciences, Bedford): Opti-MEM (Invitrogen) for MDA-MB-231 and 40 μl 1:12 mixture of Matrigel: Opti-MEM (Invitrogen) for HeLa cells and dried for 2 h at 37 °C. The lower chamber was filled with serum-free media containing 10 ng/ml EGF. Cells were seeded into upper chamber at a density 5 × 10^4 cells/ml per well in serum-free media. Cells were treated with series concentrations of Fumos for 24 h. The top aspect of the membrane was gently swabbed the inside of each insert using cotton swabs, and cells that invaded on the lower surface of the membrane were fixed using methanol and stained with crystal violet (Beyotime Institute of Biotechnology). Random fields were counted and photographed by microscope (Olympus).

[5] = test system: MDA-MB-231 cells; assay: Transwell invasion assay, MDA-MB-231; assay type: cell-based, human; conditions: 4 and 14 μM, 24 h, EGF in lower chamber
Method: as §4

[6] = test system: ERK1/2 phosphorylation in HeLa cells; assay: EGF-induced ERK1/2 activation, Western blot, HeLa; assay type: cell-based, human; conditions: 10-40 μM for 24 h, EGF 20 ng/ml 5 min
Excerpt: as §3

[7] = biological target: T2, full-length Shp2 (Shp2 FL) (Homo sapiens, UniProt Q06124); assay: in vitro PTP assay (pNPP), full-length Shp2; assay type: biochemical
T2 sequence (Q06124 1-593): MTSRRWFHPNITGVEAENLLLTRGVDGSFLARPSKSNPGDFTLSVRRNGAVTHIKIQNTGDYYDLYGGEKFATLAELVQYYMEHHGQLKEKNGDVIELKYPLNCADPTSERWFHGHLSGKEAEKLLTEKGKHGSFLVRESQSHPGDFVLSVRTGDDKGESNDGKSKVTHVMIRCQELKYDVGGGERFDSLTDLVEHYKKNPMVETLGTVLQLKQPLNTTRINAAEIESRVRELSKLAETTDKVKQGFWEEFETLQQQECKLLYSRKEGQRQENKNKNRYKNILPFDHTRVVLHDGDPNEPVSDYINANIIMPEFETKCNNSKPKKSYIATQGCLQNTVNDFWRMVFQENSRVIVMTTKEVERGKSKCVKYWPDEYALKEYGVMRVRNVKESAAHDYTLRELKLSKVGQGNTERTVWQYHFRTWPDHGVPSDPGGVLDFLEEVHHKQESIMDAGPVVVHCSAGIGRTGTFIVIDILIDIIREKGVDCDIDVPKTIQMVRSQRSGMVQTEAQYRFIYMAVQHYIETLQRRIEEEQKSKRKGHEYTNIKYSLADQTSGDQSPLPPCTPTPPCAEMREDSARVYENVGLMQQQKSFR
Method: as §1, §2

[8] = biological target: PTPH1 (Homo sapiens, UniProt P26045); assay: in vitro PTP assay (pNPP), PTPH1; assay type: biochemical
PTPH1, sequence (P26045 646-901 limits assumed): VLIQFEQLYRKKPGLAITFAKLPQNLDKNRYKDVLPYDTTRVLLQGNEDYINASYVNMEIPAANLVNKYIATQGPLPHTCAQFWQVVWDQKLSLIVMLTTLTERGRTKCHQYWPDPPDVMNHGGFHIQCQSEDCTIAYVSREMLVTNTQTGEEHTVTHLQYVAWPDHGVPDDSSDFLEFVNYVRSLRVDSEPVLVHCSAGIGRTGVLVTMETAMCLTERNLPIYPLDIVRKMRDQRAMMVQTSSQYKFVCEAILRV
Method: as §1, §2

[9] = biological target: Cdc25b (Homo sapiens, UniProt P30305); assay: in vitro PTP assay (pNPP), Cdc25b; assay type: biochemical
Cdc25b, sequence (P30305 431-538 limits assumed): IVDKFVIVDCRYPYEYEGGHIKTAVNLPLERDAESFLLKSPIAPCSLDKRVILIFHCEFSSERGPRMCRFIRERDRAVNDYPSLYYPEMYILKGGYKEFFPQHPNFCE
Method: as §1, §2

CC[C@@H](C)C[C@@H](C)/C=C(C)/C=C/C=C/C=C(\C)C(=O)c1c(O)c(-c2ccc(O)cc2)cn(O)c1=O [Fumos, Fumosorinone]
IC50 [1]: 6.31 ± 0.52 µM | IC50 selective ([1]; Shp2 relative to Shp2 PTP domain): 1 | PMA-induced ERK1/2 phosphorylation [2]: did not inhibit | Src Tyr416 phosphorylation [3]: dose-dependent downregulation | phosphorylated Tyr 530 of Src [3]: moderately increased | phosphorylation of PLCγ1 [3]: decreased | phosphorylation of Paxillin at Tyr31 [3]: peaked at low concentrations of Fumos and reduced at high concentrations | phosphorylation of Paxillin at Tyr118 [3]: decreased with the increasing concentrations | cell invasion (Transwell) [4]: significantly inhibited | cell invasion (Transwell) [5]: significantly inhibited | EGF-induced ERK1/2 phosphorylation [6]: drastically decreased | IC50 selective ([7]; Shp2 FL relative to Shp2 PTP domain): 4 | IC50 ([7]; full-length Shp2 (Shp2 FL)): 26.5 ± 0.37 µM | IC50 ([8]; PTPH1 PTP domain): > 100 µM | IC50 selective ([8]; PTPH1 relative to Shp2 PTP domain): >16 | IC50 ([9]; Cdc25b PTP domain): > 100 µM | IC50 selective ([9]; Cdc25b relative to Shp2 PTP domain): >16
